The source of these data is PubChem BioAssay AID179 (DTP/NCI, 2004).

Values joined by “and” are separate entries in the source; they are usually repeats but may differ in a detail not shown here. Equal values may be shown once. Active and inactive are the calls of the source.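 Rule for the calls: active = compounds giving half or more protection of infected cells from virus-caused growth loss, again on retest; inactive = the rest.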 Where a SMILES comes first, the peptide text is derived from it.

The assay has as its system CEM cells HIV-1 protection, formazan growth assay. Description: NCI AIDS Antiviral Assay. The settings on record: for IC50: measured here: growth of uninfected CEM cells. In outline:
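Protection of CEM cells against HIV-1 measured as cell growth via soluble formazan read-out, with five concentrations tested on both infected and uninfected cells; failure to protect may reflect toxicity.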

As for `COC[C@@]12CCC(OC)C34[C@@H]5C[C@@]6(O)C(OC(=O)c7ccccc7)[C@@H]5[C@](OC(C)=O)(C[C@@H]6OC)[C@@H](C(OC)[C@@H]31)[C@@H]4N(C=O)C2` (some centres not stated), the outcome was inactive.

Regarding `CC(C)CC(NC(=O)C(Cc1ccc(O)cc1)NC(=O)C1CCCN1C(=O)C(NC(=O)C(CO)NC(=O)C(CCCCN)NC(=O)C(NC(=O)C(N)CCC(=O)O)C(C)C)C(C)O)C(=O)NC(CO)C(=O)NC(CCCCN)C(=O)O` (configuration not stated) (H-EVKSTPYLSK-OH; configuration not given here), the outcome was inactive. On the same count and under the same terms, in the case of `CC(C)CC(NC(=O)C(Cc1ccc(O)cc1)NC(=O)C(CO)NC(=O)C(C)NC(=O)C(CO)NC(=O)C(CCC(N)=O)NC(=O)C(NC(=O)C(N)CCC(=O)O)C(C)C)C(=O)NC(CCCN=C(N)N)C(=O)NC(CCCCN)C(=O)O` (configuration not stated) (H-EVQSASYLRK-OH; configuration not given here) it was “inactive”. Broadly, the EC50 is the midpoint of the concentration-response curve. The term IC50 denotes the point on the concentration scale where inhibition reaches its midpoint. As to `CC(C)c1ccc(/C(C(=O)O)=C(\O)C(=O)O)cc1`, the EC50 was greater than 200 µM and the IC50 was determined as 107 µM. Take `O=C(CCSSCCC(=O)ON1C(=O)CCC1=O)ON1C(=O)CCC1=O`: the EC50 is greater than 200 µM and the IC50 was greater than 200 µM. For `O=C(Nc1ccc(Cl)cc1Cl)c1cc2nc3ccccc3c(=O)n2c2ccccc12`, the EC50 was greater than 100 µM and the IC50 is greater than 100 µM. For `CC(=O)N/C(=C\c1cccc([N+](=O)[O-])c1)c1nc2c3c(ccc2[nH]1)C(=O)c1ccccc1C3=O`, the result was inactive. For `O=C(c1ccccc1)n1c(Cc2ccccc2)nc2cc(C34CC5CC(CC(C5)C3)C4)ccc21`, the EC50 was greater than 100 µM and the IC50 worked out at 16.6 µM.

Regarding `CC1=C(C(=O)Nc2ccc([N+](=O)[O-])cc2)C(c2ccccc2F)C(C(=O)Nc2ccc([N+](=O)[O-])cc2)=C(C)N1`, the EC50 was greater than 13.5 µM and the IC50 was greater than 13.5 µM.

In the case of `CC(C)SC1SCC2C(=O)N(C)C3(CC3C)C(=O)OCC(NC(=O)c3nc4ccccc4cc3O)C(=O)NC(C)C(=O)N(C)C1C(=O)N(C)C1(CC1C)C(=O)OCC(NC(=O)c1nc3ccccc3cc1O)C(=O)NC(C)C(=O)N2C` (configuration not stated), the EC50 was greater than 11.2 µM and the IC50 was determined as 0.00363 µM. On to `O=C1CC(=O)NC(=NN2C(=O)CSC2c2ccc(Cl)cc2)N1` (configuration not stated), for which the EC50 is greater than 200 µM and the IC50 stood at 105 µM.

For `CCOC(=O)/C(=C\c1ccc(N(C)C)cc1)[Se]c1ccccc1`, the EC50 is greater than 69.2 µM and the IC50 is greater than 69.2 µM. `COC(=O)C1(O)CC(=O)CCC1c1ccc(OC)cc1` (configuration not stated): the EC50 is greater than 275 µM and the IC50 is greater than 275 µM. As to `CCCCCCCCO/N=C\c1c2c(O)c3c(O)c(C)c4c(c3c1O)C(=O)C(C)(O/C=C\C(OC)C(C)C(OC(C)=O)C(C)C(O)C(C)C(O)C(C)/C=C\C=C(\C)C(=O)N2)O4` (configuration not stated), the EC50 was greater than 200 µM and the IC50 came to 3.89 µM. With `OCC(O)C(O)c1nn(-c2ccccc2)c2nc3cc(Cl)c(Cl)cc3nc12` (configuration not stated), the result was inactive. With `O=C1OCc2cnccc21`, the EC50 is greater than 1860 µM and the IC50 is greater than 1860 µM. On to `CCOC(=O)NC(C(C(=O)OCC)C(=O)OCC)(C(F)(F)F)C(F)(F)F`, for which the EC50 was greater than 200 µM and the IC50 was greater than 200 µM. With `COc1cc2c(cc1O)CC[C@@H]1C2CC[C@@]2(C)C1CC[C@@H]2O` (some centres not stated), the EC50 is greater than 2 µM and the IC50 turned out to be 0.331 µM. For `N#C/C(=C/N1C(=O)CC(=O)NC1=S)c1cccc(Cl)c1`, in that order: 182 µM and greater than 200 µM. With `O=C(CN1C(=O)c2ccccc2C1=O)OCC1CCCN2CCCCC12` (configuration not stated), the EC50 is greater than 200 µM and the IC50 is greater than 200 µM. Take `CCS[C@@H]([C@@H](COC(C)=O)OC(C)=O)[S@](=O)CC`: the EC50 is greater than 200 µM and the IC50 was found to be 26.3 µM. In the case of `C=C(c1cc(Br)c(OC)c(C(=O)OC)c1)c1cc(Br)c(OC)c(C(=O)OC)c1`, the EC50 was greater than 100 µM and the IC50 is greater than 100 µM. For the compound `O=C1CCCc2cc3c(cc21)CC1(C3)Cc2cc3c(cc2C1)C(=O)CCC3`, the EC50 is greater than 200 µM and the IC50 was 0.977 µM. `O=C(O)COc1ccc2c3c1C(=O)CCC3CO2` (configuration not stated): the result was inactive. On the same count and under the same terms, the same measure for `O=[N+]([O-])c1ccccc1S(=O)(=O)Nc1ccccc1`: “inactive”. Consider `O=C1CSC(=S)N1`, for which the EC50 is greater than 1860 µM and the IC50 was 794 µM. The like results for `CC1CC[P+](c2ccccc2)(c2ccccc2)c2c1ccc1ccccc21` (configuration not stated) were, in that order, greater than 17.8 µM and 0.741 µM. `O=c1[nH]c(=S)c2cncnc2n1C1OC(CO)C(O)C1O` (configuration not stated): the EC50 was greater than 200 µM and the IC50 was greater than 200 µM. As to `Cc1ccc2[nH]c3c(ncc4[nH]c5ccccc5c43)c2c1`, the EC50 is greater than 19.1 µM and the IC50 turned out to be 3.89 µM. For `COc1ccc(NC(=O)CC/C(CC(=O)c2ccccc2Cl)=N\Nc2nnc(C)n2N)cc1`, in that order: greater than 537 µM and 191 µM. For `C/C(=N\NC(=S)N(C)C)c1cccnn1`, in that order: greater than 200 µM and 0.355 µM. The like results for `COC1CCC(C(C)O)OO1` (configuration not stated) were, in that order, greater than 200 µM and 33.9 µM. On to `O=C(Nc1ccccc1)OCC1OCOC(COC(=O)Nc2ccccc2)C1OC(=O)Nc1ccccc1` (configuration not stated), for which the EC50 is greater than 200 µM and the IC50 stood at 4.47 µM. In the case of `CC1C=C(OC(=O)c2ccccc2)C(=O)C(n2cc(F)c(=O)[nH]c2=O)O1` (configuration not stated), the outcome was inactive.

Regarding `COC1C(=O)CCC2(CO2)C1(O)C1(C)OC1CC=C(C)C` (configuration not stated), the EC50 is greater than 200 µM and the IC50 is 2.88 µM. Take `COC(=O)c1ccccc1/C=C1\Cc2c(C)c3c(c(C)c2C1=O)CCC3`: the result was inactive.

With `CN/N=C(\C(=O)Nc1ccc(C(F)(F)F)cc1[N+](=O)[O-])C(c1cnc2ccc([N+](=O)[O-])cc2n1)[N+](=O)[O-]` (configuration not stated), the EC50 was greater than 251 µM and the IC50 came out at 138 µM. The like results for `CC(=O)C(N=Nc1ncn[nH]1)C(C)=O` were, in that order, greater than 200 µM and 170 µM. The like results for `CC1CC(C)(C)N/C(=C/C(=O)N2Cc3cc4ccccc4nc3C2)O1` (configuration not stated) were, in that order, greater than 200 µM and greater than 200 µM. `CCN(CC)CCC(=O)c1ccccc1`: the EC50 is greater than 871 µM; the IC50 is > 200 µM and 26.9 µM. In the case of `CSC1=N/C(=C\c2ccco2)C(=O)N1CN1CCCCC1`, the EC50 was greater than 200 µM and the IC50 was found to be 102 µM. For `O=c1n(CCCN2CCOCC2)nc2n1-c1ccc3ccccc3c1SC2`, the EC50 was greater than 200 µM and the IC50 was determined as 33.9 µM. The like results for `COc1c(Cl)cc(C(=CCNC(=O)C[C@H]2CC[C@@]3(C)[C@@H](CC[C@@H]4[C@@H]3CC[C@]3(C)[C@@H](CC(=O)NCC=C(c5cc(Cl)c(OC)c(C(=O)O)c5)c5cc(Cl)c(OC)c(C(=O)O)c5)CC[C@@H]43)C2)c2cc(Cl)c(OC)c(C(=O)O)c2)cc1C(=O)O` were, in that order, 42.7 µM and 186 µM.

As to `Cc1cc(N)c2ccccc2[n+]1CCCCCCCCCC[n+]1c(C)cc(N)c2ccccc21`, the EC50 is greater than 24.5 µM and the IC50 was 0.155 µM.

Turning to `CC(=O)OCC1OC(n2c(C)c(N=Nc3ccc(Cl)cc3)c(C)c(C#N)c2=S)C(OC(C)=O)C(OC(C)=O)C1OC(C)=O` (configuration not stated), the EC50 is greater than 200 µM and the IC50 was greater than 200 µM. As to `Cc1ccc(/C=C2\CNC/C(=C\c3ccc(C)cc3)C2=O)cc1`, the EC50 is greater than 3.98 µM and the IC50 is greater than 3.98 µM. In the case of `Clc1ccc(C=Nc2ccc(Oc3ccc(Cl)cc3)c(Cl)c2)cc1`, the EC50 was greater than 200 µM and the IC50 worked out at 33.1 µM. The like results for `C1CCCCC2(CCCCCCCCC3(CCC1)SCCS3)SCCS2` were, in that order, greater than 200 µM and greater than 200 µM. The like results for `O=C(Nc1ccc(Cl)c(Cl)c1)C(=O)Nn1c(=S)[nH]c2ccccc2c1=O` were, in that order, greater than 437 µM and 257 µM. Consider `c1cnc2c(c1)ccc1cccnc12`, for which the EC50 was greater than 200 µM and the IC50 came out at 1.17 µM. In the case of `COC1=C(N=[N+]=[N-])C(=O)c2ncccc2C1=O`, the outcome was inactive. Turning to `COc1cc2c(cc1OC)C(Cl)C(c1ccc(Br)cc1)=C2Cl` (configuration not stated), the outcome was inactive. As for `Cc1n[nH]c(=O)c2cc3oc4ccccc4c3n12`, the EC50 is greater than 107 µM and the IC50 is 32.4 µM. For `COC(=O)C1[C@H](C(=O)OC)C1(Br)CBr` (some centres not stated), in that order: greater than 200 µM and 97.7 µM. For `CCCn1c(SCCSc2c3ccccc3c(-c3nc(F)nc(F)n3)n2CCC)c2ccccc2c1-c1nc(F)nc(F)n1`, in that order: greater than 4.07 µM and 3.98 µM. The like results for `COc1ccccc1N1C(=O)/C(=C\c2cc(OC)c(OC)c(OC)c2)S(=O)(=O)C1c1ccccc1` (configuration not stated) were, in that order, greater than 200 µM and 38 µM. As to `COCP1(=S)OC(C)CCN1C(C)C` (configuration not stated), the EC50 was greater than 200 µM and the IC50 was determined as 112 µM. The like results for `COC(=O)c1ccc2c(c1)C(O)NC(=O)O2` (configuration not stated) were, in that order, greater than 200 µM and 34.7 µM.

For the compound `Nc1ccc(Nc2cc(=O)[nH]c(=O)[nH]2)cc1`, the EC50 is greater than 200 µM and the IC50 was greater than 200 µM.

Take `c1ccc2c(c1)OCOc1ccccc1OCO2`: the outcome was inactive. With `CCN(CC)C(=O)c1cc(OC(C)C)ccc1-c1c(C)cc(OC(C)C)c(OC)c1OC`, the EC50 was greater than 214 µM and the IC50 was greater than 214 µM. For the compound `Cc1cc(S(=O)(=O)Nc2nc(N)nc(N3CCOCC3)n2)c(SCC(=O)O)cc1Cl`, the EC50 was greater than 200 µM and the IC50 was greater than 200 µM. As for `OC1(CN2CCOCC2)N=C(c2ccccc2)c2ccsc2-n2cccc21` (configuration not stated), the EC50 was greater than 200 µM and the IC50 was greater than 200 µM. With `CCO[C@@H]1OC(=O)[C@H]2C(c3ccc(Cl)cc3Cl)=NO[C@@H]12`, the EC50 was greater than 22.9 µM and the IC50 was greater than 22.9 µM. In the case of `COc1ccc(-c2cc3c(c4cc(OC)ccc24)C(=O)OC3=O)cc1`, the EC50 was greater than 11.2 µM and the IC50 is greater than 11.2 µM. Regarding `C[C@H]1CCCCC[C@@H]2CC(=O)CC2C(=O)CCC(=O)O1` (some centres not stated), the EC50 is greater than 200 µM and the IC50 was greater than 200 µM. As to `Cc1cccc(C=NC23CC4CC(CC(C4)C2)C3)c1`, the EC50 is greater than 102 µM and the IC50 is greater than 102 µM.
